Test results from patent publication US9095541B2, “Brain tumor targeting peptides and methods” (Arch Cancer Therapeutics, Inc., priority 2009, dated 2015).
Peptide text beside a SMILES is read from it.

Key:
[1] = test system: U87R xenografts; assay: In vivo phage homing, U87R xenografts, anti-M13 immunohistochemistry; design: species or system SCID mice; details: H10 phage perfused in mice carrying U87R tumors; signal within tumor mass or peritumoral; method uses mannitol pretreatment
Procedure: FIG. 6A illustrates the in vivo homing capability of H10. Invasive U87R or non-invasive U87T cells were grown in the right brain hemisphere of SCID mice. Once tumors were established, mice were anaesthetized and perfused with H10 phage for 10 minutes. Unbound phage was flushed from the system with PBS. Brains were cryosectioned and immunohistochemically stained for M13 phage or human nuclear antigen (hNA).
The ability of the selected phage or their corresponding peptides was examined for their ability to ‘home’ to their respective U87R or BTIC glioma cell targets in vivo, according to their ability to detect glioma cells in an orthotopic xenograft model. In the case of H10, SCID mice carrying U87R or U87T xenografts were injected with the test phage for ten minutes, which was subsequently perfused with PBS to remove any unbound particles.
3×10^4 U87T cells, 3×10^5 U87R cells or 5×10^4 BTICs were injected in a 3 μL volume into one brain hemisphere of a SCID mouse and allowed to grow for 4, 6 or 12 weeks respectively. […]
Serial sections were fixed with cold acetone, and rehydrated through an ethanol gradient. […] Avidin-biotin peroxidase complexes were then formed using the VECTASTAIN Elite ABC kit (Vector Laboratories) and detected by addition of […] […]

[2] = Water solubility of peptide; type: physicochemical; details: three N-terminal residues (KKG) added
Source text: In one aspect, the invention includes a peptide composition for targeting either (i) a highly invasive glioma cells (HIGC) subtype of human GBM cells, e.g., the U87R subtype of U87GM cells, or (ii) a brain tumor initiating cell (BTIC) subtype of human GBM cells, as characterized above. The peptide in the composition is 12-20 amino acid residues in length and contains one of the sequences identified as SEQ ID NOS-1-17, or a sequence that is at least 90% homologous with the given sequence. That is, the peptide has the same sequence as one of SEQ ID NOS: 1-17, or a sequence that differs from the given sequence by at most one amino acid residue. The peptide may contain only the given sequence of amino acids, or may contain additional N- and/or C-terminal residues up to a total of 20 residues. Thus, for example, the peptide corresponding to SEQ ID NO: 7, […] (H10), may have this exact sequence, the same sequence but with a single amino acid substitution, addition or deletion at any of the 12 residue positions, or a peptide having a total of up to eight additional residues at one or both of the N- or C-terminals.

[3] = test system: p75^NTR in U87R cells; assay: Sucrose/iodixanol density gradient fractionation with Western blot for p75NTR; type: cell-based, human; details: U87R cells on collagen, treated 2 hours, 10-40% sucrose/iodixanol gradient
Source text: White arrows indicate higher molecular weight p75^NTR-containing complexes. Lines underneath the figure indicate the fractions in which common organelles are generally found;
The p75^NTR can be detected differentially in lipid rafts isolated with specific detergents, and must be proteolytically processed to trigger cell migration in glioma cells. Thus, it is probable that p75^NTR is also cleaved within a lipid raft after endocytosis. To determine if H10 may be having an impact on endosomally located p75^NTR, cells were hypertonically lysed (to keep vesicles and organelles at least partially intact) and separated on a 10-40% sucrose/iodixanol gradient from which fractions were individually collected.
Cells were scraped into 1 mL of 0.25M sucrose, 140 mM NaCl, 1 mM EDTA, 20 mM Tris-HCl, pH 8.0, and dounce homogenized until cells were no longer visible by microscopy. Debris was pelleted for 5 min, 800×g and the supernatant was loaded on top of a 10 mL continuous 10-40% gradient, prepared by the dilution of OptiPrep (Sigma, 60% iodixanol) with 0.25M sucrose, 140 mM NaCl, 3 mM EDTA, 60 mM Tris-HCl, pH8.0. Gradients were spun in a swinging bucket rotor at 48000×g for 18 hrs and 0.5 mL fractions were collected. Total protein was precipitated from each fraction by the addition of 2 volumes of −20° C. […]

[4] = test system: lipid raft marker GM1 in U87R cells; type: cell-based, human; details: cholesterol oxidase, Alexa 555-cholera toxin B subunit, 120 minutes
[5] = test system: U87MG cells transfected with p75^NTR; assay: Transwell migration assay, p75NTR-transfected U87MG; type: cell-based, human; details: in vitro invasion assay
Procedure: The membranes of 8 μm pore sized transwell inserts (Corning Costar) were coated with brain-like matrix (720 μL of 3 mg/mL collagen I (PureCol); 180 μL of 10×DMEM (Invitrogen); 9 uL of 1 mg/mL human plasma fibronectin (Sigma); 9 uL of 1 mg/mL chondroitin sulfate proteoglycans (Chemicon); 16 μL of 0.15 mg/mL laminin (Chemicon)) on both sides, allowed to dry, then plated with 5×10^4 cells in 100 μL media in the upper chamber and 500 μL media in the lower chamber. Inclusion of collagen was essential to see the inhibitory effect of H10 (FIG. S4). 3×10^10 pfu of test phage were added to the upper chambers containing the cells, which were incubated for 4 hours under normal culture conditions. At the end of the incubation, the media was aspirated and the cells were fixed and stained in 1% crystal violet in 95% ethanol for one minute. Transwells were rinsed in PBS, then cells on the upper membrane surfaces were removed with a cotton swab. Cells which had migrated to the undersurface of the membranes were counted by light microscopy, and the sum of cells in five microscopic fields was recorded for each membrane.

[6] = test system: transferrin or its receptor (markers of clathrin-coated vesicles); assay: FITC-transferrin uptake and transferrin receptor gradient fractionation; type: cell-based, human; details: U87p75 and U87R cells, 2 hours
Procedure: FIG. 9A are confocal images of p75^NTR transfected glioma cells (U87p75) imaged for uptake of FITC-transferrin.
Cells were lysed, fractioned using an iodixanol gradient, and Western Blot analysis for the transferrin receptor was performed;
Cells were scraped into 1 mL of 0.25M sucrose, 140 mM NaCl, 1 mM EDTA, 20 mM Tris-HCl, pH 8.0, and dounce homogenized until cells were no longer visible by microscopy. Debris was pelleted for 5 min, 800×g and the supernatant was loaded on top of a 10 mL continuous 10-40% gradient, prepared by the dilution of OptiPrep (Sigma, 60% iodixanol) with 0.25M sucrose, 140 mM NaCl, 3 mM EDTA, 60 mM Tris-HCl, pH8.0. Gradients were spun in a swinging bucket rotor at 48000×g for 18 hrs and 0.5 mL fractions were collected. Total protein was precipitated from each fraction by the addition of 2 volumes of −20° C. 20 mM DTT, 15% TCA, storage at −20° C. overnight, followed by centrifugation at 4° C. for 20 minutes. Pellets were resuspended in 20 μL 1M Tris and 20 μL 2× Laemmli buffer. The entire volume was loaded into a single well for SDS-PAGE resolution and western transfer.

## CC[C@H](C)[C@H](NC(=O)[C@H](CO)NC(=O)[C@H](CC(N)=O)NC(=O)[C@@H](N)[C@@H](C)O)C(=O)N[C@@H](Cc1c[nH]c2ccccc12)C(=O)N[C@@H](Cc1ccc(O)cc1)C(=O)N[C@H](C(=O)N[C@@H](C)C(=O)N1CCC[C@H]1C(=O)N[C@@H](Cc1ccc(O)cc1)C(=O)N[C@@H](CCSC)C(=O)N[C@@H](Cc1ccccc1)C(=O)O)[C@@H](C)O [H10] (H-TNSIWYTAPYMF-OH; N-terminus and C-terminus assumed)
[1]
  crossing of the blood brain barrier (BBB): has the ability to cross the blood brain barrier

## CC[C@H](C)[C@H](NC(=O)[C@H](CO)NC(=O)[C@H](CC(N)=O)NC(=O)[C@@H](NC(=O)CNC(=O)[C@H](CCCCN)NC(=O)[C@@H](N)CCCCN)[C@@H](C)O)C(=O)N[C@@H](Cc1c[nH]c2ccccc12)C(=O)N[C@@H](Cc1ccc(O)cc1)C(=O)N[C@H](C(=O)N[C@@H](C)C(=O)N1CCC[C@H]1C(=O)N[C@@H](Cc1ccc(O)cc1)C(=O)N[C@@H](CCSC)C(=O)N[C@@H](Cc1ccccc1)C(=O)O)[C@@H](C)O [modified H10] (H-KKGTNSIWYTAPYMF-OH; N-terminus and C-terminus assumed)
[2]
  water solubility relative to H10 peptide: substantially more water soluble

## cholesterol oxidase
[3]
  distribution of p75^NTR forms in density gradient fractions: shift of higher molecular weight forms of p75^NTR into the denser gradient fractions
[4]
  GM1 localisation: accumulate within the cells, particularly at the plasma membrane
[5]
  cell migration of U87p75 glioma cells: significantly inhibited cell migration
[6]
  intracellular localization or gradient fractionation of transferrin or its receptor: no effect
